{"source": "patent US20150175974A1", "about": "“PRODUCING SOLIDS AND RELATED MOTHER LIQUORS” (Syngenta Participations AG, priority 2012, published 2015)", "key": {"[1]": {"experiment": "Crystal shape of TMX crystallized with phage particles (optical and electron microscopy)", "type": "physicochemical", "conditions": "TMX 11 mg/ml, phage loading C/2 to C (C=37 mg/ml), FIG. 1 and FIG. 2", "description": "An aqueous solution of TMX at a concentration of 11 mg/ml was prepared. The respective portion of TMX and water was added to an appropriately sized vessel and heated to 60° C. to dissolve the TMX. […] Phage loading was a C, C/2, C/10, C/25, and C/100. The solution was allowed to cool to room temperature and aged until crystallization was observed. Crystalline products were separated from the liquor by filtration and characterized by microscopy."}, "[2]": {"experiment": "Particle size distribution of crystallized TMX (Malvern Mastersizer)", "type": "physicochemical", "description": "An aqueous solution of TMX at a concentration of 11 mg/ml was prepared. The respective portion of TMX and water was added to an appropriately sized vessel and heated to 60° C. to dissolve the TMX. Once dissolved, phage particles having binding domains selected to bind to TMX were added to the achieve target loading set forth in the Table 1 below. The solution was allowed to cool to room temperature and aged until crystallization was observed. Crystalline products were separated from the liquor by filtration and particle size distribution was measured using a Malvern Mastersizer."}, "[3]": {"conditions": "average of the three measurements, TMX 11 mg/ml aqueous, cooled from 60° C."}, "[4]": {"conditions": "single measurements, TMX 11 mg/ml aqueous, dissolved at 60° C., cooled to room temperature, crystals filtered, listed as TMX control"}}, "note": "Values joined by “and” are separate entries in the source; they are usually repeats but may differ in a detail not shown here. Equal entries are not always repeated.", "data": [{"molecule": "CN1COCN(Cc2cnc(Cl)s2)/C1=N\\[N+](=O)[O-]", "note": "[TMX, Thiamethoxam]", "values": [{"measurement": "Crystal shape", "setting": "[1]", "value": "more bi-pyramidal shape"}, {"measurement": "Size Dv (0.5) average", "setting": "[2]; [3]", "value": 23.1057, "unit": "μm"}, {"measurement": "Size Dv (0.95) average", "setting": "[2]; [3]", "value": 54.11, "unit": "μm"}, {"measurement": "Particle size of TMX crystallized in the presence of phage particles versus control", "setting": "[2]; phage particles having binding domains selected to bind to TMX, C/25 and C/100", "value": "marked reduction"}, {"measurement": "Size Dv (0.5)", "setting": "[2]; [4]", "value": "23.378 μm and 22.048 μm and 23.891 μm"}, {"measurement": "Size Dv (0.95)", "setting": "[2]; [4]", "value": "52.18 μm and 54.16 μm and 55.74 μm"}]}]}
